# In patent publication US11566032B2, “Radio-protective and chemo-protective substituted thiols” (TONIX PHARMACEUTICALS, INC., priority 2020, dated 2023):
# Tests used:
# [1] = Phase 1 maximum tolerated dose (MTD) in mice, oral gavage; assay type: in vivo; conditions: 1,000 mg/kg, male mice
# Description: (§1) Male mice were randomized and assessed in two phases: 1) for maximum tolerated doses (MTDs) of PrC-210, DzCH2SH, and 2Pip-2PrSH to determine dose levels for the efficacy study and 2) to evaluate the efficacy of the compounds when administered 60+5 minutes prior to exposure to total body irradiation (TBI) at an LD100/30 dose (990 cGy) (Tables 1 and 2).
# (§2) For Phase 1 or 2, sterile water (vehicle), PrC-210, DzCH2SH, and 2Pip2PrSH were administered at 10 mL/kg calculated based on the most recent body weight via oral gavage. Animals were not fasted prior to administration of the compounds or vehicle. Mice in Phase 1 were administered the dose on Day 1 and mice in Phase 2 were administered the dose 60+5 minutes prior to TBI on Day 0.
# (§3) All surviving animals were observed once daily for clinical signs (e.g., unusually low or high activity, lethargy, shivering, appearance of fur, bloody and water stool, and other symptoms of moribundity) at 1-2 hours post-irradiation and/or post-dose and once daily on non-dosing days until Day 4 (Phase 1) or Day 30 (Phase 2).
# In Phase 1 (Table 1), all animals were normal when observed and all body weights were within normal range. The dose level of 1000 mg/kg was selected for Phase 2.
# [2] = tested on: male mice exposed to total body irradiation (TBI); assay: Phase 2 efficacy: survival of mice dosed prior to total body irradiation (TBI) at LD100/30; assay type: in vivo; conditions: for median survival time / animals survived until scheduled sacrifice (Day 30) / mice moribund sacrificed / mice found dead: 1000 mg/kg oral gavage prior to TBI 9.9 Gy; for median survival time: 11 male mice per group; for body weight gain: Days 5 to 9 after TBI 9.9 Gy, compared to the vehicle group; for survival of animals through 30 days post exposure: treated prior to total body irradiation (LD100/30)
# Description: as §1, §2
# Irradiation was administered once to the whole body. TBI of mice were performed using a 6 MV LINAC photon source (TrueBeam STx source). Animals were irradiated at a dose rate of up to 80 cGy/min to the midline of the animals. The source irradiated animals to 50% of the dose from anterior-posterior direction and […] from the posterior-anterior direction. Dose measurements were performed with a PTW 31010 0.1 cc Semiflex Ion chamber.
# as §3
# In Phase 2 (Table 2), survival curves of mice treated with vehicle, PrC-210, DzCH2SH or 2Pip-PrSH prior to TBI with 9.9 Gy were measured (FIG. 1). […] Five mice were moribund sacrificed, and 6 mice were found dead. Survival in the Group 13 animals was 0% and median survival time was 8 days. In mice administered with PrC-210 before TBI (Group 14), 4 animals survived until scheduled sacrifice (Day 30) while 7 mice were moribund sacrificed. […] In mice administered with DzCH2SH before TBI (Group 15), 3 animals survived until scheduled sacrifice (Day 30) while 7 mice were moribund sacrificed, and one mouse was found dead. […] Five mice were moribund sacrificed and six mice were found dead. Survival in the Group 16 mice was 0% and median survival time was 10 days.
# [3] = Exposure of the solid salt to the atmosphere (hygroscopicity); assay type: physicochemical; conditions: 10 minute exposure of a small amount to the atmosphere, diHCl salt
# Description: Concentration (rotary evaporator at ambient temperature) provided a crude oily residue which was triturated with hexane producing a white solid. The hexane was removed (via pipette suction) and replaced with dry THE (25 ml). After an additional 10 minutes of trituration, the THF was removed and replaced with dry hexane (25 ml). After an additional 10 minutes of trituration, the hexane was removed and the resulting white solid was dried in vacuo over P2O5 providing 1.95 grams of diHCl salt of PrC-210 (88%).
# In Reaction J: 34 ml of HCl in methanol, 6 eq. (1.25 M solution, Aldrich Cat #17935) was added to a solution of compound X, 2.5 grams, 0.007 moles dissolved in 10 mL dry methanol in a flask under argon and equipped for magnetic stirring and the reaction was stirred at room temperature for 24 hours. […] The solution was degassed by gently bubbling argon into the solution for 30 minutes. […]
# In Reaction P: Compound XVI, 2.2 grams, 0.0058 moles was placed in a round-bottom flask equipped for magnetic stirring followed by 15 mL anhydrous trifluoroacetic acid (CF3COOH, Aldrich #8.08260). The flask was fitted with a condenser and the solution was refluxed for 5 hours whereupon it was determined that the reaction was complete using TLC by observing the disappearance of starting material and the appearance of a highly polar product, which stained positive with ninhydrin. […]
# [4] = tested on: mice exposed to 8 Gy (LD100) radiation; assay: Protection of mice from lethal radiation (8 Gy, LD100); assay type: in vivo; conditions: oral gavage 15-90 minutes prior to 8 Gy (LD100), 60 days post irradiation
# Description: The radioprotective efficacy of the thiols, prodrugs and double prodrugs according to this disclosure is assessed in mice. The compounds of the disclosure are administered via oral gavage to mice, and are compared to mice that have been administered 3-(methylamino)-2-(methylaminomethyl)propane-1-thiol (PrC-210), as well as to a control group or mice that are administered vehicle (i.e., containing no radioprotective additive).
# More specifically, mice are assigned to three groups (Groups 1, 2 and 3). A control group, Group 1, is treated via oral gavage with vehicle (Lactated Ringer's and 5% dextrose, adjusted to pH 7.3 with sodium bicarbonate) 15-90 minutes prior to a dose of 8 Gy (LD100) radiation. Group 2 is treated via oral gavage with PrC-210, as a positive control, dissolved in Lactated Ringer's at a dose of 200 mg/kg 15-90 minutes prior to irradiation with 8 Gy (LD100). Group 3 is treated via oral gavage with compound 1 (PrC-210-PT) dissolved in Lactated Ringer's at a dose of 308 mg/kg 15-90 minutes prior to irradiation with 8 Gy (LD100). The mortality of the three groups is assessed for 60 days post irradiation. The experiment is repeated with doses of PrC-210 ranging from 200 mg/kg to 450 mg/kg. Molar equivalent dosages of the test compound (compound 1, Prc-210-PT) to PrC-210 are also assessed.
# The experiment is repeated to assess the efficacy of compounds 2-23 as radioprotectors.
# [5] = tested on: mice exposed to whole body irradiation; assay: Radiation dose required to kill 50% of mice (LD50), whole body irradiation; assay type: in vivo; conditions: oral gavage 60 minutes prior to whole body irradiation 2-12 Gy, 30 days
# Description: The affect of the compounds according to the disclosure on the dose of radiation required to kill 50% of mice (LD50) is assessed.
# Mice are assigned to three groups (Groups 1, 2 and 3). A control group, Group 1, is treated via oral gavage with vehicle (Lactated Ringer's and 5% dextrose, adjusted to pH 7.3 with sodium bicarbonate) 60 minutes prior to whole body irradiation (2 Gy). Group 2 is treated via oral gavage with PrC-210, as a positive control, dissolved in Lactated Ringer's at a dose of 200 mg/kg 60 minutes prior to whole body irradiation (2 Gy). Group 3 is treated via oral gavage with compound 1 (PrC-210-PT) dissolved in Lactated Ringer's at a dose of 308 mg/kg 60 minutes prior to whole body irradiation (2 Gy). The mortality of the three groups is assessed for 30 days post irradiation.
# The experiment is repeated using varying radiation doses of 4, 6, 8, 10 and 12 Gy. The LD50 for each group was determined.
# The experiment is repeated to assess compounds 2-23 as radioprotectors.
# [6] = in vivo; cited from earlier work
# [7] = clinical signs after TBI 9.9 Gy, of 11 mice
Compound,toxicity at the highest tested dose [1],median survival time [2] [days],animals survived until scheduled sacrifice (Day 30) ([2]; of 11 mice),mice moribund sacrificed ([2]; of 11 mice),body weight gain [2],"Eye discharge, number of animals [2, 7]","Hypoactivity, number of animals [2, 7]","Swollen eye, number of animals [2, 7]",survival of animals through 30 days post exposure [2],signs of hygroscopicity [3],mice found dead ([2]; of 11 mice),"Cold to touch skin, number of animals [2, 7]","Lethargy and swollen head, number of mice [2, 7]",other results
"CNCC(CS)CNC [PrC-210, 3-(methylamino)-2-((methylamino)methyl)propane-1-thiol, reference compound]",did not produce any toxicity,11,4,7,significantly higher,one,5,one,increased survival,did not show any signs of hygroscopicity,–,–,–,"mean body weight ([2]; Day 9 after TBI 9.9 Gy): higher than body weights in the Groups 13, 15 and 16; Tremor, number of mice [2, 7]: 4; rate of survival, control group versus treated mice [4]: control group demonstrates a reduced rate of survival compared to the mice treated; LD50 (radiation dose), control group versus treated mice [5]: control group demonstrates a lower LD50 compared to the mice treated; side effects compared with Amifostine [6]: less side effects than Amifostine"
"CC(C)(S)C1CNCCN1 (stereo not drawn) [Compound 2Pip-2PrSH, 2-(piperazin-2-yl)propane-2-thiol]",did not produce any toxicity,10,no animals survived,Five,did not gain body weights,one,5,one,–,–,six,4,one,"Survival ([2]; 1000 mg/kg oral gavage 60+5 minutes prior to TBI 9.9 Gy (LD100/30), Day 30, 11 male mice per group): 0%"
"SCC1CNCCNC1 [DzCH2SH, (1,4-diazepan-6-yl)methanethiol]",did not produce any toxicity,11,3,7,did not gain body weights,2,5,2,increased survival,did not show any signs of hygroscopicity,one,one,one,"mortality rate at 8-days post-irradiation ([2]; 1000 mg/kg oral gavage prior to TBI 990 cGy): efficacious effects; Eye opacity, number of mice [2, 7]: one; Labored breathing, number of mice [2, 7]: one; eye cloudy, number of animals [2, 7]: 2; sunken eye, number of animals [2, 7]: 1"
